Measurements taken from paper PMC4520450, “Procyanidins Negatively Affect the Activity of the Phosphatases of Regenerating Liver” (PLoS ONE, 2015).

How the values were obtained:
[1] = biological target: T1, PTP1B (Homo sapiens, UniProt P18031); assay: DiFMUP assay for PTP1B, TCPTP, VHR; format: biochemical; conditions: 12.5 μM, 30 min incubation, 20 μM DiFMUP, 50 nM enzyme
T1 construct: made in house
T1 sequence (P18031 1-435): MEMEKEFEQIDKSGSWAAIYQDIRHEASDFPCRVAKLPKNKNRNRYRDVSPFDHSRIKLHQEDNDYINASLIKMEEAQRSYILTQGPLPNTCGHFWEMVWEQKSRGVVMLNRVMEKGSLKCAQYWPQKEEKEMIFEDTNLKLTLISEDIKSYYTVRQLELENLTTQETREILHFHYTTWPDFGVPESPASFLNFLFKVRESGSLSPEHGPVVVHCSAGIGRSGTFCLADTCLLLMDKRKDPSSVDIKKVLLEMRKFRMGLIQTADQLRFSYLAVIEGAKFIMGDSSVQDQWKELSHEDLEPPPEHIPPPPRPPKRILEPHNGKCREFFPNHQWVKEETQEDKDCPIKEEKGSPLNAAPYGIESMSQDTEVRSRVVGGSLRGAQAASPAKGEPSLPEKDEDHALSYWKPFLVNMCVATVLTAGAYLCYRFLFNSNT
Description: (§1) As an extension of our studies we included PTP1B, VHR and TCPTB as examples for phosphotyrosine specific phosphatases in our activity studies, because tea extracts were reported to inhibit PTP1B [43]. For comparison with PRL-3, these proteins were used in the same concentration (50 nM) as PRL-3 and DiFMUP was also used as a substrate in 20 μM concentration. The enzymes were incubated with three different concentrations of procyanidin C2 (9) for 30 min before the measurement.
(§2) Fig 3 Effect of procyanidin C2 (9) on the phosphatase activity of VHR, PTP1B and TCPTP using DiFMUP as a substrate. Proteins were incubated with compound 9 for 30 min., phosphatase activity measurements were performed using 20 μM DiFMUP. Phosphatase activity in the absence of compound 9 was set as 100%. Data represent means ± standard errors of the mean (n = 3).
(§3) DiFMUP assay for PTP1B, TCPTP, VHR: In a final reaction volume of 100 μL the PTPs (50 nM final concentration) were incubated with […] of procyanidin C2 (9) for 30 minutes at 25°C. The buffer conditions were pH 7.2, 4-/2-Hydroxyethyl)-1-piperazineethanesulfonic acid (HEPES) 25 mM, EDTA 2.5 mM, DTT 2.0 mM, NaCl 124.4 mM. After the incubation time 20 μL DiFMUP was added to reach a final concentration of 20 μM. On a Tecan safire2 (Tecan, Salzburg, Austria) plate reader dephosphorylation of the substrate to its fluorescent product was monitored by following the emission at […] for 10 minutes. All measurements were done in triplicates, and the experiments were repeated at least three times. The slopes of the initial phases were obtained by linear regression of the data points. The normalized reaction rates were plotted versus the log of the inhibitor concentrations and the IC50 values were obtained by fitting the curves using the one site competition model of GraphPad Prism (GraphPad Software, Version 5). Due to the high water solubility of 9 DMSO was not required and measurements were done in assay buffer only.

[2] = biological target: T2, VHR (Homo sapiens, UniProt P51452); assay: DiFMUP assay for PTP1B, TCPTP, VHR; format: biochemical; conditions: 12.5 μM, 30 min incubation, 20 μM DiFMUP, 50 nM enzyme
T2 construct: made in house
Description: as §1, §2, §3

[3] = Cytotoxicity by flow cytometry with propidium iodide; format: cell-based; conditions: human
From the text: To study the effects of procyanidins on PRL-1 and PRL-3 in cells, the trimeric catechin (procyanidin C2, 9) was chosen as a representative example due to its strong inhibitor activity in vitro toward both PRL-s and its smaller size compared to the higher oligomers, which could influence cell permeability. HEK293 cells stably overexpressing PRL-1 and PRL-3 were chosen as model cell line. As a control cell line, HEK293 cells transfected with the empty vector were utilized (see the Experimental Procedures). To avoid false positive results due to cell death, first cell viability was studied in a concentration dependent manner by using flow cytometry. Therefore, cells were treated with different concentrations of compound 9 for 24 h, harvested, and then the ratio of living to dead cells was determined using propidium iodide (Fig 5).
Fig 5 Cytotoxicity of procyanidin C2 (9) in HEK293 cells. Cells were treated with 50, 150 or 300 μM of 9 in the growth medium for 24 h. Cells were harvested, resuspended in PBS buffer and incubated with propidium iodide (1 mg/mL) for 5 min on ice. 10,000 events were set for the number of living cells. The number of living cells was divided by the number of total cells counted and given as percentage of cell survival. Data represent means ± standard errors of the mean (n = 3).
Fig 7 A) Cytotoxicity of procyanidin B3 (8) in HEK293 cells. Cells were treated with 50, 75 or 100 μM of 8 in the growth medium for 24 h. Cells were harvested, resuspended in PBS buffer and incubated with propidium iodide (1 mg/mL) for 5 min on ice. 10,000 events were set for the number of living cells. The number of living cells was divided by the number of total cells counted and given as percentage of cell survival. Data represent means ± standard errors of the mean (n = 3). B) Wound healing abilities of PRL-1 or PRL-3 overexpressing or empty vector control HEK293 cell lines were analyzed in the presence of compound 8 or medium only. Cells were seeded at a concentration of 800,000 cells per insert and procyanidin B3 (8) was added at a concentration of 50 and 75 μM. Speed of migration is shown for combined data from different replicates, as mean ± SD (n = 40–77). Two-sided t-tests with Welsh correction were performed for p < 0.05. ns = not significant;***: < 0.001; **: < 0.01; *: < 0.05.
Flow cytometry was used to determine the ratio of living to dead cells compared to the control. HEK293 empty vector and PRL-3 overexpressing cells were seeded in a transparent 6-well plate with 400,000 cells/well in DMEM medium without Phenol red, supplemented with 10% FBS, 1% glutamine and 0.2% hygromycin and blasticidin. For induction of PRL-3 expression, 0.1% tetracycline was added. After 24 hours incubation at 37°C, procyanidins 8 or 9 dissolved in growth medium and growth medium as a control were added to the respective wells in the indicated final concentrations and incubated for another 24 hours. Then, the medium was removed and collected in Eppendorf tubes, centrifuged for 5 min at 500 rpm and the supernatant removed. Then 1 mL of PBS (10%) was added to each well and the cells detached with a cell scraper. […] After thorough mixing the cell suspension was injected into a LSR- Fortessa Bench Top Analyzer (Beckton Dickinson) and the number of living and dead cells counted. […] The number of living cells was divided by the number of total cells counted and given as percentage of cell survival.

[4] = biological target: T3, PRL-3 (Homo sapiens, UniProt O75365); assay: DiFMUP phosphatase activity assay for PRLs; format: biochemical; conditions: 20 μM DiFMUP
T3 construct: His-TEV (cleaved yes); made in house
T3 sequence (O75365 whole entry): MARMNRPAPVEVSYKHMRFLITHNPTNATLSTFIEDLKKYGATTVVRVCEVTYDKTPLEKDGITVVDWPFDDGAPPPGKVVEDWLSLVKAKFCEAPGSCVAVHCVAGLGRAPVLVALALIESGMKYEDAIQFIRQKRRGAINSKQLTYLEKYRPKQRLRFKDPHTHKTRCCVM

T2 sequence (P51452 whole entry, species assumed): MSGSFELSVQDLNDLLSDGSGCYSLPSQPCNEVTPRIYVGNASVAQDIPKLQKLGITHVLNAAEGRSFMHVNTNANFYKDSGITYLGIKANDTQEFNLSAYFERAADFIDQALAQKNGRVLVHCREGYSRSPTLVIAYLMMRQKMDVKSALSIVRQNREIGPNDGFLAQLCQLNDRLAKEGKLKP

SMILES: Oc1cc(O)c2c(c1)O[C@H](c1ccc(O)c(O)c1)[C@@H](O)[C@@H]2c1c(O)cc(O)c2c1O[C@H](c1ccc(O)c(O)c1)[C@@H](O)[C@@H]2c1c(O)cc(O)c2c1O[C@H](c1ccc(O)c(O)c1)[C@@H](O)C2 [Procyanidin C2 (9), Procyanidin C2]
- PTP1B phosphatase activity compared to the control [1]: 75–85%
- VHR phosphatase activity compared to the control [2]: 75–85%
- viability at 24 h, 150 µM [3]: ~50%
- viability at 24 h, 300 µM [3]: ~50%
- PRL-3 phosphatase activity compared to the control ([4]; 12.5 μM, 30 min incubation, 50 nM enzyme): 75–85%
- inhibition of PRL-3 activity ([4]; 25 μM and 50 μM): inhibited in a concentration dependent manner
